From patent US6413986B1, “[1-indanon-2-yl]methylpiperidines” (Aventis Pharmaceuticals Inc., priority 1991, dated 2002) come the findings set out here.

Each structure is given as a SMILES string.

The assay has as its target T1, Acetylcholinesterase (Rattus norvegicus, UniProt P37136).
T1 construct: Male Wistar rats are decapitated, brains rapidly removed, corpora striata dissected free, weighed and homogenized; from tissue; host or cells: rat brain corpora striata homogenate (male Wistar rats)
T1 sequence (P37136 32-614): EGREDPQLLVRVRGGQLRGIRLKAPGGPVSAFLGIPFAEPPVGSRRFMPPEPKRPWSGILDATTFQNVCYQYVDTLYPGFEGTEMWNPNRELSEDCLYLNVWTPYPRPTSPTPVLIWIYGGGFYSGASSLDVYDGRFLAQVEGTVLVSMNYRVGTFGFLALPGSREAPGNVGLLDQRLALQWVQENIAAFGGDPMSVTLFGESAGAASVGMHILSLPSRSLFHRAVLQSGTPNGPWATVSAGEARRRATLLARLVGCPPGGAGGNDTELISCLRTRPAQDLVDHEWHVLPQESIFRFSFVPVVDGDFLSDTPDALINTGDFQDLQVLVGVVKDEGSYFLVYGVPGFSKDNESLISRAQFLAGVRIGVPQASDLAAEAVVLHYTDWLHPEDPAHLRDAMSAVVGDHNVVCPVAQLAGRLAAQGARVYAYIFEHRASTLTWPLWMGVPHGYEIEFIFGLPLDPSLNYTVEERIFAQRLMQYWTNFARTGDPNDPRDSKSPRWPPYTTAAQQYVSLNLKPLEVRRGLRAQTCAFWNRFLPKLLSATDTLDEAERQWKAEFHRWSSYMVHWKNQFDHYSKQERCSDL
Nature of the assay: inhibition of acetyl cholinesterase activity (acetylthiocholine/DTNB spectrophotometric assay, rat striatal homogenate). In kind it is biochemical, Male Wistar rats. The settings on record: rat corpora striata homogenate; preincubated for 10 minutes at 37° C.; substrate acetylthiocholine 5 mM final; DTNB 0.5 mM; 412 nm; log-probit analysis. As to the method: The [1-indanon-2-yl]methylpiperidines of the present invention are useful as agents for the relief of memory dysfunction, particularly dysfunctions associated with decreased cholinergic activity such as those found in Alzheimer's disease.
4. A 2 mM stock solution of the test drug is made up in a suitable solvent and q.sed to volume with 0.5 mM DTNB (reagent 3). Drugs are serially diluted (1:10) such that the final concentration (in cuvette) is 10^−4M and screened for activity. If active, IC50 values are determined from the inhibitory activity of subsequent concentrations.
Male Wistar rats are decapitated, brains rapidly removed, corpora striata dissected free, weighed and homogenized in 19 volumes (approximately 7 mg protein/ml) of 0.05 M sodium phosphate, pH 7.2 using a Potter-Elvehjem homogenizer. A 25 μl aliquot of this suspension is added to 1 ml of the vehicle or various concentrations of the test drug and preincubated for 10 minutes at 37° C.
Enzyme activity is measured with the Beckman DU-50 spectrophotometer. This method can be used for IC50 determinations and for measuring kinetic constants.
Reagents are added to the blank and sample cuvettes as follows:
Blank values are determined for each run to control for non-enzymatic hydrolysis of substrate and these values are automatically subtracted by the kindata program available on kinetics soft-pac module. This program also calculates the rate of absorbance change for each cuvette.
Substrate concentration is 10 mM diluted 1:2 in assay yielding final concentration of 5 mM. DTNB concentration is 0.5 mM final concentration
% Inhibition=slope control-slope drug/slope control×100
IC50 values are calculated from log-probit analysis.

On to `CNC(=O)Oc1ccc2c(c1)C(=O)C(CC1CCN(Cc3cccc(F)c3)CC1)C2` (stereo not shown) [1-(3-Fluorobenzyl)-4-[[6-(methylaminocarbonyloxy)-1-indanon]-2-yl]methylpiperidine], for which half-maximal inhibition (IC50) required 1.51 µM.

Turning to `CCCCNC(=O)Oc1ccc2c(c1)C(=O)C(CC1CCN(Cc3ccccc3)CC1)C2` (stereo not shown) [1-Benzyl-4-[[6-(butylaminocarbonyloxy)-1-indanon]-2-yl]methylpiperidine], half-maximal inhibition (IC50) required 1.43 µM.

Regarding `O=C(NCc1ccccc1)Oc1ccc2c(c1)C(=O)C(CC1CCN(Cc3cccc(F)c3)CC1)C2` (stereo not shown) [1-(3-Fluorobenzyl)-4-[[6-(benzylaminocarbonyloxy)-1-indanon]-2-yl]-methylpiperidine], 3.17 µM corresponded to half-maximal inhibition (IC50). Compared with the last compound, the IC50 is about 2.2-fold higher. On to `CNC(=O)Oc1ccc2c(c1)C(=O)C(CC1CCN(Cc3ccccc3)CC1)C2` (stereo not shown) [1-Benzyl-4-[[6-methylaminocarbonyloxy)-1-indanon]-2-yl]methylpiperidine], for which the IC50 (commonly the concentration that inhibits the measured activity by half) came to 1.34 µM.
